Experimental data published in publication PMC5244392, “Interspecies cathelicidin comparison reveals divergence in antimicrobial activity, TLR modulation, chemokine induction and regulation of phagocytosis” (Scientific Reports, 2017).

How the values were obtained:
[1] = test system: LPS-induced TLR-4 activation of RAW264.7 cells; assay: LPS neutralization: LPS-induced TNFα release; format: cell-based, murine; conditions: peptide 0.08-20 μM; for Summary class, TLR activation LPS: 100 ng/ml LPS E. coli O111:B4, TNFα after 2 h, − = no significant effect, N = 3; for LPS neutralization / inhibition of LPS-induced activation, in words: 100 ng/ml LPS, 2 h, TNFα
From the text: TLR ligands: LPS Escherichia coli (E. coli) O111:B4 (TLR-4), LTA S. aureus (TLR-2), and ODN-1826 (TLR-9) were obtained from Invivogen (Toulouse, France). Chicken CATH-2 (chCATH-2) and PMAP-36 were synthesized by Fmoc-chemistry at China Peptides (CPC scientific, Sunnycale, CA) and all other cathelicidins were synthesized by Fmoc-chemistry at the Academic Centre for Dentistry Amsterdam (Amsterdam, The Netherlands) (Table 1). Purity of all peptides was >95% as analyzed by HPLC-MS.
RAW264.7 cells were stimulated with 100 ng/ml LPS E. coli O111:B4, 1 μg/ml LTA S. aureus or 2.5 nM ODN-1826 in the presence of various concentrations of different cathelicidins. TNFα release was determined after 2 h for LPS and LTA stimulation and 24 h for ODN-1826 stimulation. CXCL10, CCL5 and IL-10 release were all determined after 24 h stimulation. As a control, RAW264.7 cells were stimulated for 2 h with 10^6 CFU/ml live or heat-killed (70 °C, 0.5 h) E. coli O78, followed by a double wash with cell culture medium and subsequent 22 h incubation in cell culture medium supplemented with 250 μg/ml gentamicin.
ELISA Duoset kits for mouse TNFα, CCL5, CXCL10 and IL-10 were obtained from R&D systems (Minneapolis, MN, USA) and ELISAs were performed according to the manufacturer’s protocol. Samples were stored at −20 °C until analysis and, if needed, diluted in 1% BSA in PBS, pH 7.4. Absorbance at 450 nm was determined in a FLUOstar Omega microplate reader (BMG Labtech GmbH) and corrected for absorbance at 570 nm. Results were analyzed with MARS data analysis software (BMG Labtech GmbH).
RAW264.7 cells were stimulated for 2 h with 100 ng/ml LPS from E. coli O111:B4 in the presence of different cathelicidins at various concentrations to study the capability of LPS neutralization (Fig. 3A). […] Next, RAW264.7 cells were stimulated with 1 μg/ml S. aureus LTA for 2 h in the presence of various cathelicidin concentrations, to test LTA neutralization (Fig. 3B).
Figure 3 Effects of cathelicidins on TLR-2, -4, and -9 activation. LPS (100 ng/ml) (A), LTA (1 μg/ml) (B) or ODN-1826 (2.5 nM) (C) was mixed with different cathelicidins (0.08 μM, 0.31 μM, 1.25 μM, 5 μM, and 20 μM) before addition to the RAW264.7 cells. Supernatants were collected after 2 hours (A,B) or 24 hours (C) incubation and TNFα expression was measured. The dotted line represents the average cytokine release of control samples. Results are presented as average +/− SEM (N = 3). Statistical differences were determined by Two-way ANOVA with Bonferroni post-hoc test.

[2] = test system: methicillin resistant Staphylococcus aureus (MRSA) (WKZ-2, human clinical isolate); assay: Bacterial growth delay (Bioscreen C), MRSA; format: cell-based; conditions: for Cmax, MRSA, DMEM / Summary class, antimicrobial activity S. aureus DMEM / Max: hours growth delay with 20 μM cathelicidin, MRSA, DMEM: DMEM + FCS; for Cmax, MRSA, DMEM / Cmax, MRSA, MHB: 1 × 10^6 CFU/ml, peptide 0.31-20 μM, 16 h, 37 °C, — = no Cmax reached up to 20 μM; for Cmax, MRSA, DMEM / Cmax, MRSA, MHB / Max: hours growth delay with 20 μM cathelicidin, MRSA, MHB / Max: hours growth delay with 20 μM cathelicidin, MRSA, DMEM: N = 4; for Summary class, antimicrobial activity S. aureus DMEM / Summary class, antimicrobial activity S. aureus MHB: MRSA, − is not defined in the key; for Max: hours growth delay with 20 μM cathelicidin, MRSA, MHB / Max: hours growth delay with 20 μM cathelicidin, MRSA, DMEM: 20 μM peptide, given if no Cmax was reached
Experimental: E. coli O78 (Zoetis Animal Health, Kalamazoo, MI, USA), E. coli ATCC 25922, Staphylococcus aureus ATCC 29213, and methicillin resistant Staphylococcus aureus (MRSA) (WKZ-2, human clinical isolate) were grown overnight from a glycerol stock in Mueller Hinton Broth (MHB) (Becton Dickinson, USA). Before use, bacteria were grown to mid-log phase in MHB for 2 hours at 37 °C, 200 RPM. Murine RAW264.7 macrophages (ATCC-TIB-71) were obtained from the American Type Culture Collection (ATCC, Manassas, VA, USA) and cultured in DMEM (41966-029; Thermo Fisher Scientific, Waltham, MA, USA) supplemented with 10% FCS (Bodinco B.V., Alkmaar, the Netherlands) (DMEM + FCS) at 37 °C, 5.0% CO2. Cells were seeded in 96-wells plates at 5 × 10^5 cells/ml or 12-wells plates at 2 × 10^5/ml for adherence overnight prior to stimulation.
Peptides (0.63 to 40 μM) and bacteria mid-log cultures (2 * 10^6 CFU/ml) were prepared in MHB or DMEM + FCS and mixed (100 μl peptide + 100 μl bacterial culture) in a Bioscreen C analyzer plate (Oy Growth Curves Ab Ltd, Helsingfors, Finland). Plates were placed in a Bioscreen C analyzer (Oy Growth Curves Ab Ltd) and bacteria were grown for 16 h at 37 °C with 200 RPM. The OD was measured every 15 minutes using a wideband filter (450–580 nm) to measure bacterial growth. The time needed grow above an OD of 0.6 was determined for all concentrations. Activity of peptides was expressed as the Cmax, the concentration of peptide required to delay the growth for 10 h compared to the control. Or, for peptides with low activity (no Cmax), activity was expressed as the hours of growth delay at 20 μM. Unlike the classic MIC and MBC determination used in microbiology, this method also enabled comparison of peptides with low antibacterial activity.
Twelve cathelicidins from 6 different species were selected for this study, namely: human LL-37, murine CRAMP, dog K9CATH, equine CATH (eCATH)-1, -2 and -3, chicken CATH (chCATH)-1, -2, and -3, porcine PMAP-23 and -36 and PR-39 (Table 1). Antimicrobial activity against E. coli and MRSA was directly compared under standardized conditions in MHB, a medium optimized for bacterial growth. Bacterial growth delay was defined as the delay in hours for peptide-treated bacteria to reach an OD of 0.6, compared to the non-treated control. Cmax is the minimal concentration needed to delay growth for a minimum of 10 hours compared to the non-treated control (Table 1 and Fig. 1A).
Figure 1 Antibacterial activity of cathelicidins. E. coli and MRSA (1 × 10^6 CFU/ml) of were grown in MHB or DMEM ± FCS for 16 hours under constant shaking (200 RPM). Every 15 minutes the OD was measured. Growth delay was defined as the time needed for peptide-treated bacteria to grow above an OD of 0.6 compared to the control bacteria (no peptide added) (A). Cathelicidins were tested in different concentrations (0.31 μM, 0.63 μM, 1.25 μM, 2.5 μM, 5 μM, 10 μM, and 20 μM) to determine the antimicrobial activity in MHB against E. coli (B) or MRSA (C) and in more physiological medium DMEM + FCS (D,E). Results are presented as average +/− SEM (N = 4).

Row | Substance | Summary class, TLR activation LPS [1] | LPS neutralization / inhibition of LPS-induced activation, in words [1] | Cmax, MRSA, DMEM [2] [µM] | Summary class, antimicrobial activity S. aureus DMEM [2] | Cmax, MRSA, MHB ([2]; MHB) [µM] | Summary class, antimicrobial activity S. aureus MHB ([2]; MHB) | Activity against MRSA in MHB, in words ([2]; MHB, peptide up to 20 μM) | Max: hours growth delay with 20 μM cathelicidin, MRSA, MHB ([2]; MHB) [h] | Max: hours growth delay with 20 μM cathelicidin, MRSA, DMEM [2] [h]
1 | RFGRFLRKIRRFRPKVTITIQGSARF-NH2 [chCATH-2, chicken CATH-2, C-terminal amide, 26 residues, charge +9] | ↓↓ (↓↓ = significant decrease ≤5 μM) | potently inhibited | 0.31 | +++ (+++ = Cmax at ≤20 μM) | 2.5 | +++ (+++ = Cmax at ≤20 μM) |  |  | 
2 | RRRPRPPYLPRPRPPPFFPPRLPPRIPPGFPPRFPPRFP [PR-39, porcine proline-rich cathelicidin forming a polyproline helix, 39 residues, charge +10] |  | None of the equine cathelicidins nor PMAP-23 and PR-39 were capable to neutralize LPS | 10 | +++ (+++ = Cmax at ≤20 μM) |  |  | no effect | 0.5 | 
3 | RIIDLLWRVRRPQKPKFVTVWVR [PMAP-23, porcine α-helical cathelicidin, 23 residues, charge +6] |  | None of the equine cathelicidins nor PMAP-23 and PR-39 were capable to neutralize LPS | 10 | +++ (+++ = Cmax at ≤20 μM) | 20 | +++ (+++ = Cmax at ≤20 μM) |  |  | 
4 | RLKELITTGGQKIGEKIRRIGQRIKDFFKNLQPREEKS [Peptide K9CATH, dog cathelicidin, 38 residues, charge +6] | ↓↓ (↓↓ = significant decrease ≤5 μM) | significantly inhibited |  | + (+ = >4 hours inhibition at 20 μM) |  |  |  | 0.5 | 4.5
5 | KRRHWFPLSFQEFLEQLRRFRDQLPFP [eCATH-2, equine CATH-2, 27 residues, charge +4] |  |  |  |  |  |  |  | 1.5 | 3.5
6 | Ac-GRFRRLRKKTRKRLKKIGKVLKWIPPIVGSIPLGCG [PMAP-36, porcine α-helical cathelicidin, N-acetylated, 36 residues, charge +13] | ↓↓ (↓↓ = significant decrease ≤5 μM) |  | 0.31 | +++ (+++ = Cmax at ≤20 μM) | 10 | +++ (+++ = Cmax at ≤20 μM) |  |  | 
7 | GLLRKGGEKIGEKLKKIGQKIKNFFQKLVPQPEQ [CRAMP, murine cathelicidin, 34 residues, charge +6] | ↓↓ (↓↓ = significant decrease ≤5 μM) |  |  | + (+ = >4 hours inhibition at 20 μM) |  |  |  | 0.5 | 6.5
8 | RVKRFWPLVPVAINTVAAGINLYKAIRRK [chCATH-3, chicken CATH-3, 29 residues, charge +7] | ↓↓ (↓↓ = significant decrease ≤5 μM) | significantly inhibited | 0.31 | +++ (+++ = Cmax at ≤20 μM) | 5 | +++ (+++ = Cmax at ≤20 μM) |  |  | 
